Entries after “also recorded” stand apart in the source; their conditions may differ.
Experiments:
RBL2H3 cells = assay: Mast cell degranulation: [3H]-5HT release; assay type: cell-based; conditions: for DNP-OA-stimulated release of [3H]-5HT: ovalbumin (DNP-OA), 10 μM
Protocol: RBL2H3 cells were cultured in RPMI 1640 containing 10% FCS and were passaged into 24 well plates for experiments. The cells were sensitised by a 48 hour incubation with 50% (V/V) conditioned medium from a lymphoid cell line secreting anti-DNP ovalbumin antibody. During the last 24 hours of this incubation [^3 H]-5HT (1 μCi/ml) was added to each of the wells to label granular amine stores. At the end of the incubation period, the medium was aspirated, the cells were washed twice in RPMI 1640 and incubated in RPMI 1640 (0.25% BSA) in the absence or presence of 2-methyoxyoestradiol for 15 mins prior to stimulation with DNP-treated ovalbumin, A23187 or PMA for 30 mins at which time the supernatants were harvested, subjected to centrifugation (1000×g, 4° C., 5 min) and aliquots taken for determination of the amount of [^3 H]-5HT released. All experiments were carried out in quadruplicate.

[1] = tested on: Human polymorphonuclear leukocytes; assay: Tetramethylbenzidine oxidation (myeloperoxidase release/activity) in leukocytes; conditions: for Tetramethylbenzidine oxidation: 2-methoxyestradiol 3 μM
glucocorticoid receptors = conditions: Merriam et al, 1980; cited from earlier work
[2] = tested on: endothelial cells and fibroblasts; conditions: actively proliferating or non-quiescent; cited from earlier work
[3] = tested on: airway smooth muscle cells; assay: Morphological changes (cell rounding); assay type: cell-based, human
tubulin = conditions: literature; cited from earlier work
[4] = tested on: airway smooth muscle cells; conditions: 10 μM
[5] = tested on: certain transformed cell lines; conditions: Lottering et al., 1992; cited from earlier work
tumours = conditions: cited from earlier work
[6] = tested on: human cultured airway smooth muscle cells; assay: Protein synthesis: [3H]-leucine incorporation; assay type: cell-based; conditions: for 5HT-stimulated increase in protein synthesis: 5HT 10 nM, 0.3-10 μM
Protocol: Human bronchial airway smooth muscle was obtained from macroscopically normal lung resection specimens from lung transplant donors or recipients provided by the Alfred Hospital (Melbourne). Cultures were prepared as previously described in detail (Tomlinson et al., 1994). Briefly, the tissue was partially digested in Dulbecco's Modified Eagle's Medium (DMEM), [supplemented with 2 mM L-glutamine, 100 μg/ml streptomycin, 100 U/ml penicillin-G, 2 μg/ml amphotericin B, and 0.25% w/v bovine serum albumin (BSA)] containing 3 mg/ml collagenase for 30 minutes at 37° C. and approximately 0.5 g smooth muscle was further digested by a 2 hour incubation in 0.5 mg/ml elastase, followed by an 18 hour incubation in collagenase (3 mg/ml) at 37° C. Cell suspensions ere centrifuged (10 min, 100×g, 25° C.), washed three times in supplemented DMEM, resuspended in 25 ml DMEM containing 10% (v/v) heat-inactivated foetal calf serum (FCS), seeded into 25 cm^2 Falcon culture flasks and incubated (37° C., 5% CO2) for 7 to 10 days until monolayer confluence was reached. Cells were then harvested weekly by 10 min exposure to 0.5% trypsin, 1 mM EDTA and passaged at a 1:3 split ratio into 75 cm^2 Falcon culture flaskes. Cells at passage numbers 3 to 15 were used for experiments.
Cells were subcultured into 24-well plates at a 1:3 ratio and allowed to grow to monolayer confluency over a 72-96 hour period in an atmosphere of 5% CO2 in air at 37° C. The serum-containing medium was replaced with serum-free DMEM for a 24 hour period to produce growth arrest. In some experiments, the cells were pretreated with 2-methoxyestradiol 30 min before the addition of mitogen. The stimulant (mitogen) was added to the appropriate wells together with a supplement containing insulin, transferrin, and selenium (Monomed A, 1% v/v). Monomed A was added to provide progression factors which are essential for the mitogenic activity of growth factors such as thrombin, epidermal growth factor (EGF) and basic fibroblast growth factor (bFGF) (Stewart et al., 1995a). Mitogens and inhibitors were left in contact with cells from the time of addition until the end of the experiment, unless indicated otherwise. Cells were incubated for 24 hours (37° C., 5% CO2) before being pulsed with [^3 H]-thymidine (1 μCi/ml for four hours) to measure incorporation of radiolabel into newly synthesized DNA, according to out previous study (Stewart et al., 1995). Incorporation of radioactivity was determined by filtration at the end of the pulse-labelling period. The medium containing the radioactivity was aspirated and the cells were lysed by addition of 200 μl of 0.1M NaOH. The DNA was immobilised by filtration in a binding harvester (Packard Filtermate 196) on glass fibre filters (Packard, standard), which were then washed with 3×3 ml volumes of distilled water and a single 1 ml volume of 100% ethanol. The dried filters were counted in a Packard Topcount liquid scintillation counter. Protein synthesis rates were determined in experiments of analogous design to those described above, but [^3 H]-leucine replaced [^3 H]-thymidine in the pulsing incubation of 4 hours. Furthermore, in experiments to determine the effects of mitogens and 2-methoxyestradiol on the rate of protein synthesis, incubations with mitogen were carried out for a period of 48 hours. The longer duration of these experiments was required to allow sufficient time for cell division to occur.
Each treatment in an individual experiment was carried out in quadruplicate for DNA and protein synthesis experiments. Each experiment was performed in at least three different cultures obtained from three different individuals. For cell counting, single incubations were carried out in three cultures. Results are presented as grouped data from multiple cultures and are expressed as mean ±S. E. of n cultures. The degree of increment was calculated by dividing the response of treated wells by that of the control wells on the same 24-well plate.

[7] = tested on: polymorphonuclear leukocytes (PMN); assay: Superoxide anion generation in PMN; assay type: cell-based, human; conditions: fMLP (100 nM) or zymosan (400 μg/ml); up to 10 μM

COc1cc2c(cc1O)CC[C@@H]1[C@@H]2CC[C@]2(C)[C@@H](O)CC[C@@H]12 [2-methoxyestradiol, 1,3,5[10]-estratriene-2,3,17-triol 2-methylether]
release of [3H]-5HT, basal or PMA or A23187 (RBL2H3 cells; basal, PMA (100 nM), A23187 (10 μM)): unaffected; also recorded: did not affect release in response to PMA
DNP-OA-stimulated release of [3H]-5HT (RBL2H3 cells): reduced
DNP-OA-stimulated release of [3H]-5HT (RBL2H3 cells; listed as 2-methoxyoestradiol): inhibits degranulation
oxidation of tetramethyl-benzidine in leukocytes ([1]; 3 μM, zymosan (400 μg/ml) or fMLP stimulated): reduced oxidation of tetramethyl-benzidine
Tetramethylbenzidine oxidation ([1]; control (no stimulus), 2×10^6 PMN in 0.5 ml): -0.004 change in absorbance value
Tetramethylbenzidine oxidation ([1]; fMLP 100 nM (basal 0.057)): 0.028 change in absorbance value
Tetramethylbenzidine oxidation ([1]; zymosan 400 μg/ml (basal 0.26)): 0.013 change in absorbance value
myeloperoxidase activity in cell-free supernatants ([1]; fMLP stimulated leukocytes, highest concentration 10 μM): reduced only by the highest concentration
release of myeloperoxidase from polymorphonuclear leukocytes ([1]; human peripheral blood): inhibits the release of myeloperoxidase
affinity for glucocorticoid receptors (glucocorticoid receptors): not to have significant affinity
proliferation of endothelial cells and fibroblasts [2]: inhibits proliferation
onset of shape changes ([3]; 3 and 10 μM): ≤ 6 h
morphological changes ([3]; 3 and 10 μM (2-methoxyestradiol)): rounded appearance of the normally spindle-shaped cells
microtubule disruption / tubulin polymerisation (tubulin): microtubule disruption via binding at the colchicine site on tubulin
cell detachment from the culture plates [4]: no cell detachment
protein synthesis rates (as evidence against cytotoxicity) [4]: not altered
proliferation of transformed cell lines [5]: inhibits proliferation
growth of tumours (tumours; Fotsis et al., 1994): inhibited the growth of tumurs
tumour neovascularization (tumours; Klauber et al, 1997): Inhibition of tumour neovascularization
5HT-stimulated increase in protein synthesis [6]: decreased
5HT-stimulated increase in protein synthesis ([6]; listed as 2-methoxyoestradiol): inhibited
[3H]-leucine incorporation, compound alone, 0.3 μM ([6]; unstimulated, 0.3 μM): small stimulation
superoxide anion generation in PMN [7]: not reduced

— patent US6200966A, “Compositions for inhibiting airway wall inflammation” (Amrad Operations Pty. Ltd., priority 1996, dated 2001)
